Publication PMC12214007, “CARF-dependent preferential RNA cleavage by Csm6 increases drug susceptibility of mycobacteria” (Nucleic Acids Research, 2025)

Target: Csm6 (Mtb Csm6) (Mycobacterium tuberculosis, UniProt P71635)
Sequence (P71635 34-415): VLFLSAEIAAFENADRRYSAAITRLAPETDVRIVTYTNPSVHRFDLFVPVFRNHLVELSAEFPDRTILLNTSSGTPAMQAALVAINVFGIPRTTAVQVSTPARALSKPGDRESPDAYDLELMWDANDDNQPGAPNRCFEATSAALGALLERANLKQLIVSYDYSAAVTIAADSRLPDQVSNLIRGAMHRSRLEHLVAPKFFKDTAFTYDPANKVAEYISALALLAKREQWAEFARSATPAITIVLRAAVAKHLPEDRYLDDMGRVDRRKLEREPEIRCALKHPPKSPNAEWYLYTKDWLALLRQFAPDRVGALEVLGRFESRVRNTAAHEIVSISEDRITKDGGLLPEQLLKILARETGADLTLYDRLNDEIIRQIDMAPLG

For `Nc1ncnc2c1ncn2[C@@H]1O[C@@H]2COP(=O)(O)O[C@H]3[C@@H](O)[C@H](n4cnc5c(N)ncnc54)O[C@@H]3COP(=O)(O)O[C@H]3[C@@H](O)[C@H](n4cnc5c(N)ncnc54)O[C@@H]3COP(=O)(O)O[C@H]3[C@@H](O)[C@H](n4cnc5c(N)ncnc54)O[C@@H]3COP(=O)(O)O[C@H]3[C@@H](O)[C@H](n4cnc5c(N)ncnc54)O[C@@H]3COP(=O)(O)O[C@H]3[C@@H](O)[C@H](n4cnc5c(N)ncnc54)O[C@@H]3COP(=O)(O)O[C@H]2[C@H]1O` [cA6, cyclic hexa-adenylate], the “gel-based cleavage assay of Cy5-labelled 24 nt ssRNA” value was “the presence of cA6 significantly enhances the nuclease activity of Csm6”.
